# Measurements taken from the METLIN SMRT retention time set (Domingo-Almenara et al. 2019).
# Test: gradient 5% acetonitrile 3 min, to 50% in 2 min, to 85% in 15 min, held 3 min, 100 µL/min
# Settings: column: Zorbax Extend-C18 2.1 x 50 mm; eluents: water / acetonitrile, 0.1% formic acid
# Method in brief: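 In both positive and negative ionization mode, a quadrupole time-of-flight mass spectrometer coupled to HPLC analyzed pure standards run in mixtures of ~100 molecules. The Zorbax Extend-C18 column (2.1 × 50 mm, 1.8 μm) was operated at 100 μL/min with water and acetonitrile, each containing 0.1% formic acid. The dead volume was 40 μL and the dwell volume 900 μL. Retention time came from adduct peaks that were computationally picked and individually inspected by hand.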
row,Compound,RP-LC retention time [s]
1,Cc1cnc2n(c1=O)C(CC(=O)NCCc1ccc(S(N)(=O)=O)cc1)CS2 (stereo not drawn),575
2,CCOc1ccc(S(=O)(=O)N2CCc3c(c(-c4nnc(-c5ccccc5)o4)nn3C)C2)cc1,996
3,O=C(C1CCN(c2cc(N3CCCCC3)ncn2)CC1)N1CCSCC1,628
4,COc1cccc(C#N)c1OCC(N)=O,592
5,Cc1ccccc1NC(=O)N1C[C@@H]2C[C@H](NC(=O)c3cccs3)[C@H]1C2,706
6,CNC(=O)c1c2c(nc3ccccc13)CCC2,542
7,CCc1nc2cc(N3CCCC(C(=O)NCC4CC4)C3)cnc2nc1CC (stereo not drawn),762
8,COC1C(=O)N(CC2CC2)C12CCN(C(=O)C(C)C)CC2 (stereo not drawn),686
9,Cc1cc(C)n2c(Nc3ccc(Cl)cc3)c(-c3ccc(Cl)cc3)nc2n1,886
10,Cc1ccc(NS(=O)(=O)c2cc(-c3[nH]ncc3C(=O)N(C)C)oc2C)cc1Cl,730
11,CC(C)NC(=O)N1CCc2c(c(-c3nc(Cc4ccccc4)no3)nn2C)C1,748
12,CCOc1ccccc1-c1noc(CN2C(=O)COc3ccccc32)n1,963
13,COc1ccc(Br)cc1-c1nnc2n(C)c3c(=O)n(C)c(=O)n(C)c3n12,641
14,CCOc1ccc(-c2nnc(SCC(N)=O)o2)cc1,682
15,COc1cc(C2C(C(=O)N3CCCCC3)=C(C)NC3=C2C(=O)CCC3)ccc1OC(C)=O (stereo not drawn),647
16,COCc1nnc(C(=O)Nc2ccc(C(=O)NCCc3c[nH]c4ccc(OC)cc34)cc2)s1,790
17,CC(C)CCN1CCC(N2CCN(S(=O)(=O)Cc3ccccc3)CC2)C1=O (stereo not drawn),646
18,CCN1CCN(c2cc(C)c3cc(NC(=O)CC(C)C)ccc3n2)CC1,560
19,Cc1nnc(-c2nnc(NCC(C)C)c3ccccc23)o1,652
20,O=C(CCc1ccccc1)NC1(c2nc(-c3ccncc3)no2)CCCCC1,902

row,Compound,RP-LC retention time [s]
1,O=C(NCc1cc(-c2ccc3c(c2)OCCO3)on1)c1ccc2nsnc2c1,788
2,COC[C@@H]1CN(C(=O)c2cc(C)oc2C)C[C@H]1c1nc(C2CC2)no1,815
3,Cc1ccc(NC(=O)Cc2ccc(S(C)(=O)=O)cc2)c(C(=O)c2ccccc2)c1,814
4,CN(CC(=O)Nc1c2c(nc3c1CCC3)CCCC2)Cc1ccccc1,562
5,COc1cccc(OC)c1CN1CC[C@@H]2CN(S(C)(=O)=O)[C@@H]2C1,594
6,CCOC(=O)c1noc2ncnc(Nc3cc(C)ccc3OC)c12,1060
7,O=S(=O)(c1ccc2c(c1)OCCO2)N1CCC(Cc2nc(-c3cccnc3)n[nH]2)C1 (stereo not drawn),633
8,COc1ccc(CNc2nc3ccncc3n(C(C)C)c2=O)cc1OC,550
9,COc1cc(-c2ccccc2)nc2ccc(NS(=O)(=O)c3ccc(NC(C)=O)cc3)cc12,653
10,Cc1ccc(S(=O)(=O)N2c3ccccc3NC3=C(C(=O)CCC3)C2c2ccco2)cc1C (stereo not drawn),860
11,Cc1nc(-c2ccc(-c3noc(COc4ccccc4)n3)cc2)cs1,1180
12,CCc1nc2sc(C(C)C)nn2c1S(=O)(=O)N1CCCC1,945
13,CCn1nc(C)cc1C(=O)Nc1nc(-c2cccs2)cs1,903
14,CC(C)C(=O)Nc1ccc(C(=O)NCCNS(=O)(=O)c2ccc(F)c(Cl)c2)cc1,720
15,Cc1ccc(CN2CCC3(CC2)CC(C)(O)CCO3)nc1 (stereo not drawn),556
16,CCOC(=O)c1c(C)[nH]c(C(=O)N2CCC(CC(=O)NCCN(C)C)CC2)c1C,569
17,COC(=O)CS(=O)c1ccc(C(F)(F)F)cc1[N+](=O)[O-] (stereo not drawn),730
18,CCc1noc(NC(C)=O)c1-c1ccc(C)c(S(=O)(=O)NC2CC2)c1,728
19,Cc1ccc(OCC(=O)Nc2ccc(-c3nc(-c4cc(C)ccc4C)co3)cc2)cc1,888
20,O=C(C1CCCN1)N1CCC(OCc2nc(-c3cccnc3)no2)CC1 (stereo not drawn),572

# More lines, now with the values ahead:
row,RP-LC retention time [s],Compound
1,1020,O=c1n(Cc2ccc(Cl)cc2)nc2c(S(=O)(=O)N3CCc4ccccc4C3)cccn12
2,932,Cc1ccc2ncn(C3CCN(S(=O)(=O)c4cc(F)cc(F)c4)CC3)c(=O)c2c1
3,954,Cc1ccc2c(c1)N(C(=O)Cn1cnc(-c3nc(-c4ccccc4)cs3)c1)CCO2
4,1110,CCOC(=O)C1C(=O)C=C(c2cccs2)CC1c1ccc(F)cc1 (stereo not drawn)
5,1270,CCCc1noc(-c2ccnc(-n3ncc(C(=O)Nc4ccc(Cl)cc4)c3C)c2)n1
6,672,NS(=O)(=O)c1ccc(CCNC(=O)c2ccc3c(c2)NC(=O)C2CCCCN32)cc1 (stereo not drawn)
7,964,O=C(Cn1cccc(-c2nc(-c3ccc(F)cc3)no2)c1=O)Nc1ccc(Br)cc1F
8,750,O=C(Nc1ccc(N2CCN(Cc3ccc(F)cc3)C2=O)nc1)C1CCC1
9,813,O=C(C1CCCO1)N1CCc2ccc(NS(=O)(=O)c3ccc(F)c(Cl)c3)cc21 (stereo not drawn)
10,1050,O=C(Cc1cccs1)N1CCCC(c2ccnc(-c3ccc(F)cc3)n2)C1 (stereo not drawn)
11,806,Cc1ccccc1NC(=O)Cn1c(=O)n(-c2ccccc2)c(=O)c2c1cc(C)n2C
12,806,O=C(Nc1ccc(F)cc1F)N1CCC(n2cnc3c(Cl)cccc3c2=O)CC1
13,749,O=C(c1ccco1)N1CCC(Cc2nnc(-c3ccccc3)o2)CC1
14,1030,CCc1cccc(NC(=O)N2CCc3cn(CCOC)c4cccc(c34)C2)c1
15,739,Cc1oc(-c2[nH]ncc2C(=O)N2CCCC2)cc1S(=O)(=O)Nc1ccc(Cl)cc1
16,1370,Clc1cccc(-c2nnc(-c3nc(NCCC4=CCCCC4)c4ccccc4n3)o2)c1
17,1130,CC(C)n1c(=O)c2ccccc2n(Cc2nc(-c3ccccc3Cl)no2)c1=O
18,857,Cc1cccc(Cn2cc(C(=O)O)c3ccccc3c2=O)c1
19,1130,Cc1nn(CC(=O)N2CCC(C)CC2)c(=O)c2c(-n3cccc3)n(-c3ccc(Cl)cc3)nc12
20,1070,O=C(c1ccc(Cl)s1)N1CCc2nc(-c3ccc(F)cc3)ncc2C1
21,1120,COC1CN(c2cccc(F)c2)C12CCN(C(=O)C1(c3ccccc3)CC1)CC2 (stereo not drawn)
22,718,Cc1cc(C(=O)NC(C)C)c2cccc(Cl)c2n1
23,898,CCCn1cc(S(=O)(=O)Nc2ccc(F)c(F)c2)c2cccnc21
24,877,Cc1ccc(Cl)cc1N1CCN(C(=O)c2ccc(Cn3cncn3)cc2)CC1

row,RP-LC retention time [s],Compound
1,881,COc1ccc(NC(=O)Nc2cccc(-c3nccnc3N3CCCC3)c2)c(OC)c1
2,1080,CCCCN1C(=O)C(C)(C(=O)Nc2ccc(OC)c(Cl)c2)Oc2cccnc21 (stereo not drawn)
3,893,Cn1nc(-c2nc(C3CC3)no2)c2c1CCN(C(=O)c1ccc(Br)cc1)C2
4,733,CCOc1ccc(CC(=O)NC2CCN(c3cc(-c4cccs4)[nH]n3)C2)cc1 (stereo not drawn)
5,1150,Cc1cc(OCC(=O)N2CCC(C)CC2)nc(-c2ccc(Cl)cc2)n1
6,909,Cc1ccccc1OCC(=O)N1CCC2(CC1)NC(=O)N(Cc1ccccc1Cl)C2=O
7,878,CC(C(=O)N1CC2CN(S(=O)(=O)c3cccc(F)c3)CC(C1)O2)c1ccccc1 (stereo not drawn)
8,659,CC(C)CCNC(=O)N1CCC(c2cc(N)on2)CC1
9,680,O=C(NCc1ccccc1Cl)C1CCCN(C(=O)c2cc(-c3ccccn3)n[nH]2)C1 (stereo not drawn)
10,642,COc1ccc(NC(=O)Cn2nc3n(c2=O)CCCC3)c(OC)c1
11,830,Cc1ccc(N2N=C(C(=O)N3CCCC3)S(=O)(=O)c3cccnc32)cc1
12,690,Cc1sc2cc(C(=O)N3CCN(c4ccc(F)cc4)CC3)[nH]c2c1CN1CCOCC1
13,927,Cc1ccc(-c2cn3ccn(-c4ccc(F)c(Cl)c4)c(=O)c3n2)cc1
14,754,O=C(Cn1c(=O)n(-c2ccc(F)cc2)c2ncccc21)N1CCCCC1
15,592,CC1=C(c2ccc(Cl)cc2)S(=O)(=O)N=C1N1CCC(C(=O)NCCN2CCOCC2)CC1
16,679,CN(C)c1nc2cc(C(=O)N3CCCCC3)sc2n1-c1ccccc1
17,914,Cc1ccc(NC(=O)C2CCCN2S(=O)(=O)c2cc3c(cc2C)NC(=O)C(C)O3)c(Cl)c1 (stereo not drawn)
18,796,O=C(Nc1ccc2c(c1)OCCO2)N1CC[C@@H]2CN(Cc3ccccc3)[C@@H]2C1
19,706,O=C(Cn1c(=O)c2cccn2c2ccc(F)cc21)N1CCN(C(=O)c2ccco2)CC1
20,983,CCc1ccc(CNC(=O)C2Cc3cc(S(=O)(=O)N4CCCCC4)ccc3N2C(C)=O)cc1 (stereo not drawn)
21,584,O=C(Nc1ccc2c(c1)OCCO2)C1CCCN(C(=O)c2cc(-c3ccncc3)n[nH]2)C1 (stereo not drawn)
22,805,Cc1cc(C)c(NC(=O)COc2cccc3c(=O)n(C)ccc23)c(C)c1
23,819,CCC(C)NC(=O)c1nc(Nc2cccc(C)c2)c2ccccc2n1 (stereo not drawn)
24,852,Cc1ccc(NC(=O)CSc2nc(N3CCCCC3)nc3ccccc23)cc1Cl
